From patent publication US9084748B2, “Biopolymer produced by fermenting the extract of soybean with folic acid and a composition containing thereof” (Damy Chemical Co., Ltd., priority 2007, dated 2015)

How the values were obtained:
mice (BALB/C, male) = assay: Anti-allergic (anti-anaphylaxis) test, C48/80 intraperitoneally injected; assay type: in vivo
Procedure: C48/80 is a material that stimulates immune organs and induces acute anaphylaxis within 30 minutes when intraperperitoneally injected. In the current experiment, the number of test animals which died within a predetermined time period (24 hours) after the intraperperitoneal injection of the C48/80 was counted. In the current experiment, 10 mice (BALB/C, male) were used per group, and each group was tested for three times and the average value of the three experimental results was represented as a death ratio (%).

[1] = test system: mast cells (ATCC TIB-64, P815); assay: Quantifying histamine secreted by C48/80-stimulated mast cells (ELISA); assay type: cell-based
Procedure: This experiment was performed to identify how much the folyl EFS reduces the amount of histamine secreted when mast cells are treated with a stimulant. […] FIG. 2 is a bar chart showing the results of the experiment. […] As described above, it can be seen that the folyl EFS has an excellent anti-histamine (anti-allergic) effect.

[2] = test system: human dermal fibroblast neonatal; assay: Collagen biosynthesis promotion, human collagen type-1 ELISA; assay type: cell-based
Procedure: The folyl EFS and the human dermal fibroblast neonatal were incubated for 3 days, and the supernatant was isolated and collagen was quantified using a human collagen type-1 ELISA kit (Cosmo Bio Co.). A sample used in the current experiment was a 1% solution containing Composition 2 used in Preparation Example 2, and 4% of 1,3-butyleneglycol was added to the sample and preserved. Also, to compare with the effect of the folyl EFS, a folic acid solution in which the concentration of the folic acid was the same as that in the folyl EFS was prepared. In addition, 10 ng/ml of transforming growth factor-beta (TGF-β; Sigma), which is known as a promotion factor for collagen biosynthesis, was compared with the folyl EFS.
The collagen biosynthesis promotion effect of the folyl EFS is shown in the bar chart of FIG. 8. A folyl EFS produced as a cosmetic source material was a 1% liquid product. In FIG. 8, the concentration (%) of the x-axis denotes a ratio of the volume of the folyl EFS to the volume of the entire culture solution (v/v, %). The results are represented as the ratio of the value of collagen of each group with respect to the average value of collagen in a group not treated with anything when the average value of collagen in the group not treated with anything was set at 100%. […]

[3] = test system: human dermal fibroblast neonatal (HDF-N); assay: Cell growth of fibroblast primary culture, neutral red (NR) assay; assay type: cell-based; details: fibroblasts incubated 24 hours
Excerpt: It was identified through the current experiment that the folyl EFS promotes cell growth and collagen biosynthesis. A cell line used in the current experiment was a primary culture of a fibroblast (human dermal fibroblast neonatal; (HDF-N; Gibco, Cooper, M. L. et al, Biomaterials 12:243, 1991), and a culture media used was a fibroblast neonatal growth medium (FGM, KDR Co.). […] Shao-Zeng Z. et al., Cell Biology and Toxicology, 6:2, 1990) (see FIG. 7).

O=C(O)c1cc(=O)c2c(OCC(O)COc3cccc4oc(C(=O)O)cc(=O)c34)cccc2o1 [sodium cromolyn]
inhibition of development of anaphylaxis (mice (BALB/C, male); 1% sodium cromolyn): up to 80%
inhibition of sequela of anaphylaxis (mice (BALB/C, male); result in words): did not inhibit sequela of anaphylaxis
ED50 value (histamine secretion inhibition) ([1]; C48/80-stimulated mast cells, ELISA): 0.5%
histamine secretion inhibition rate ([1]; about 0.5% of the sodium cromolyn): 50%

TGF-β
maximum promotion rate of collagen biosynthesis ([2]; at 0.63% (v/v, %), 3 days, relative to untreated group set at 100%): 22%

Nc1nc2ncc(CNc3ccc(C(=O)N[C@@H](CCC(=O)O)C(=O)O)cc3)nc2c(=O)[nH]1 [folic acid]
cell growth rate when concentration gradually increased [3]: the cell growth rate was not increased accordingly
collagen biosynthesis promotion effect ([2]; folic acid solution at same folic acid concentration as in folyl EFS): did not occur within an error range
